# Data from publication PMC11981937 (Nature, 2025).
# Where “and” joins values, the source holds several entries; their conditions need not be identical. Equal values may be shown once. Entries after “also recorded” stand apart in the source; their conditions may differ. Read-outs that look alike come from different tables or passages of the source.
# Tests used:
# [1] = tested on: SARS-CoV-2 B1; type: in vivo, Syrian golden hamster; conditions: pre-exposure
# [2] = tested on: SARS-CoV (FFM1 strain); assay: microbe, parasite or virus in culture; type: cell-based; conditions: Severe acute respiratory syndrome coronavirus
# [3] = in vivo; conditions: dog
# [4] = tested on: SARS-CoV-2; type: in vivo, Syrian golden hamster; conditions: for Infectious virus in the lung (TCID50), average Log 10 / Infectious virus in the lung (TCID50), median Log 10 / Viral load (viral RNA) in the lung, average Log 10 / Viral load (viral RNA) in the lung, median Log 10 / Infectious virus in the lung (TCID50), Copy number, individual animal / Infectious virus in the lung (TCID50), Log 10, individual animal / Viral load (viral RNA) in the lung, Copy number, individual animal / Viral load (viral RNA) in the lung, Log 10, individual animal: 75 mg/kg BID; for Infectious virus in the lung (TCID50), average Log 10 / Infectious virus in the lung (TCID50), median Log 10 / Viral load (viral RNA) in the lung, average Log 10 / Viral load (viral RNA) in the lung, median Log 10: n=5; for Infectious virus in the lung (TCID50), Copy number, individual animal / Infectious virus in the lung (TCID50), Log 10, individual animal / Viral load (viral RNA) in the lung, Copy number, individual animal / Viral load (viral RNA) in the lung, Log 10, individual animal: listed as 87009676-AAA
# [5] = tested on: HCoV-OC43; assay: HCoV-OC43 antiviral CPE reduction assay in MRC-5 cells; type: cell-based
# Description: 161 determined with Promega CellTiter 96™ via a colorimetric assay (MTS assay). Readout was done
# 162 using a GloMax® Discover Microplate Reader (Promega).
# 163 Data were normalized taking the infected cells without treatment and the mock non-infected cells
# 164 as the bottom and top values of the dose-response curves, respectively. Dose-response curves were
# 165 fitted using non-linear regression analysis employing a sigmoidal model in Graphpad Prism
# 166 (version 9.5.0). In each experiment, data were presented as mean ± standard error of the mean of
# 167 3 technical replicates.
# 168 HCoV-OC43 antiviral CPE reduction assay
# 169 For the HCoV-OC43 CPE reduction assay, MRC-5 cells were seeded in black or white 96-well
# 170 plates (Greiner Bio-One) at a density of 10,000 cells/well and incubated overnight at 37°C. The
# 171 next day, compound was added to the assay plates in either a 4-fold dilution series or 2-fold dilution
# 172 series. Sequentially, cells were infected with HCoV-OC43 at a final MOI of 0.3. Plates were then
# 173 incubated for 6 days at 33°C under 5% CO2. […]
# 174 determined using the Viral ToxGlo™ assay (Promega) on a BioTek spectrophotometer.
# 175 Cytotoxicity was evaluated in parallel in treated, uninfected cells in a similar set-up with the same
# 176 readout. EC50 and CC50 values were calculated using GraphPad Prism 9.5.0. […]
# 181 0.1. […] Readouts for antiviral activity […]
structure (smiles),measurement,setting,value
"C[C@H]1Cn2ncc(C(=O)Nc3cccc(C#N)c3)c2C(=O)N1c1ccc(C(F)(F)c2ccccc2)cc1 [JNJ-9676, (S)-N-(3-cyanophenyl)-5-(4-(difluoro(phenyl)methyl)phenyl)-6-methyl-4-oxo-4,5,6,7-tetrahydropyrazolo[1,5-a]pyrazine-3-carboxamide]","Viral load (viral RNA) in the lung, Log 10, individual animal","[1]; 75 mg/kg BID, listed as 87009676-AAA, 75 mg/kg",2.69 Log 10 and 3.13 Log 10 and 6.22 Log 10 and 8.34 Log 10 and 2.44 Log 10
same,"Infectious virus in the lung, reduction relative to vehicle","[1]; 8.33 mpk BID, 8.33 mg/kg",0.50 (p>0.05) log10 TCID50/mg lung and 0.50 (p>0.05) log10 TCID50/mg lung
same,"Viral load in the lung, reduction relative to vehicle","[1]; 8.33 mpk BID, 8.33 mg/kg",2.01 (p>0.05) log10 copies/mg lung and 2.01 (p>0.05) log10 copies/mg lung
same,"Infectious virus in the lung, reduction relative to vehicle","[1]; 25 mpk BID, 25 mg/kg",4.41 (p=0.02) log10 TCID50/mg lung and 4.41 (p=0.02) log10 TCID50/mg lung
same,"Viral load in the lung, reduction relative to vehicle","[1]; 25 mpk BID, 25 mg/kg",3.51 (p=0.0003 log10 copies/mg lung and 3.51 (p=0.0003) log10 copies/mg lung
same,"Infectious virus in the lung, reduction relative to vehicle","[1]; 75 mpk BID, 75 mg/kg",4.14 (p=0.03) log10 TCID50/mg lung and 4.14 (p=0.03) log10 TCID50/mg lung
same,"Viral load in the lung, reduction relative to vehicle","[1]; 75 mpk BID, 75 mg/kg",3.01 (p=0.0019) log10 copies/mg lung and 3.01 (p=0.0019) log10 copies/mg lung
same,EC50,[2]; read-out: Median EC50,21 nM
same,EC90,[2]; read-out: Median EC90,45 nM
same,Vd,[3],8.2 L/kg
same,clearance,[3],< 1.5 mL/min/kg
same,half-life,[3],> 40 h
same,bioavailability,[3]; po,> 80%
same,"Infectious virus in the lung (TCID50), average Log 10",[4]; 10 h post exposure,1.99 Log 10
same,"Infectious virus in the lung (TCID50), median Log 10",[4]; 10 h post exposure,1.84 Log 10
same,"Viral load (viral RNA) in the lung, average Log 10",[4]; 10 h post exposure,6.33 Log 10
same,"Viral load (viral RNA) in the lung, median Log 10",[4]; 10 h post exposure,6.02 Log 10
same,"Infectious virus in the lung (TCID50), Copy number, individual animal",[4]; 10 h post exposure,3.34E+02 and 6.93E+01 and 7.21E+00 and 6.50E+01 and 8.01E+02
same,"Infectious virus in the lung (TCID50), Log 10, individual animal",[4]; 10 h post exposure,2.52 Log 10 and 1.84 Log 10 and 0.86 Log 10 and 1.81 Log 10 and 2.90 Log 10
same,"Viral load (viral RNA) in the lung, Copy number, individual animal",[4]; 10 h post exposure,1.05E+06 and 4.63E+06 and 1.13E+05 and 8.39E+05 and 9.46E+07
same,"Viral load (viral RNA) in the lung, Log 10, individual animal",[4]; 10 h post exposure,6.02 Log 10 and 6.67 Log 10 and 5.05 Log 10 and 5.92 Log 10 and 7.98 Log 10
same,"Infectious virus in the lung (TCID50), average Log 10",[4]; 24 h post exposure,1.64 Log 10
same,"Infectious virus in the lung (TCID50), median Log 10",[4]; 24 h post exposure,1.62 Log 10
same,"Viral load (viral RNA) in the lung, average Log 10",[4]; 24 h post exposure,6.39 Log 10
same,"Viral load (viral RNA) in the lung, median Log 10",[4]; 24 h post exposure,6.81 Log 10
same,"Infectious virus in the lung (TCID50), Copy number, individual animal",[4]; 24 h post exposure,4.14E+01 and 7.14E+01 and 5.40E+01 and 2.87E+01 and 3.52E+01
same,"Infectious virus in the lung (TCID50), Log 10, individual animal",[4]; 24 h post exposure,1.62 Log 10 and 1.85 Log 10 and 1.73 Log 10 and 1.46 Log 10 and 1.55 Log 10
same,"Viral load (viral RNA) in the lung, Copy number, individual animal",[4]; 24 h post exposure,9.36E+06 and 2.59E+04 and 3.10E+05 and 6.49E+06 and 1.85E+08
same,"Viral load (viral RNA) in the lung, Log 10, individual animal",[4]; 24 h post exposure,6.97 Log 10 and 4.41 Log 10 and 5.49 Log 10 and 6.81 Log 10 and 8.27 Log 10
same,"Infectious virus in the lung (TCID50), average Log 10",[4]; 48 h post exposure,1.82 Log 10
same,"Infectious virus in the lung (TCID50), median Log 10",[4]; 48 h post exposure,1.67 Log 10
same,"Viral load (viral RNA) in the lung, average Log 10",[4]; 48 h post exposure,7.33 Log 10
same,"Viral load (viral RNA) in the lung, median Log 10",[4]; 48 h post exposure,7.46 Log 10
same,"Infectious virus in the lung (TCID50), Copy number, individual animal",[4]; 48 h post exposure,4.79E+01 and 7.10E+02 and 4.67E+01 and 2.27E+01 and 3.31E+01
same,"Infectious virus in the lung (TCID50), Log 10, individual animal",[4]; 48 h post exposure,1.68 Log 10 and 2.85 Log 10 and 1.67 Log 10 and 1.36 Log 10 and 1.52 Log 10
same,"Viral load (viral RNA) in the lung, Copy number, individual animal",[4]; 48 h post exposure,5.20E+06 and 3.10E+06 and 6.15E+07 and 1.50E+08 and 2.86E+07
same,"Viral load (viral RNA) in the lung, Log 10, individual animal",[4]; 48 h post exposure,6.72 Log 10 and 6.49 Log 10 and 7.79 Log 10 and 8.18 Log 10 and 7.46 Log 10
same,efficacy (in words),"[4]; hamster, in vivo",efficacious; also recorded: significant efficacy
same,reduction of infectious virus in the lung,"[4]; hamster, in vivo",1.8 log10[TCID50 per mg lung]
same,"Infectious virus in the lung, reduction relative to vehicle","[4]; hamster, in vivo, 75 mg/kg",1.65 (p=0.0003) log10 TCID50/mg lung and 2.00 (p<0.0001) log10 TCID50/mg lung and 1.83 (p<0.0001) log10 TCID50/mg lung and 1.65 (p=0.0003) log10 TCID50/mg lung and 2.00 (p<0.0001) log10 TCID50/mg lung and 1.83 (p<0.0001) log10 TCID50/mg lung
same,"Viral load in the lung, reduction relative to vehicle","[4]; hamster, in vivo, 75 mg/kg",2.38 (p=0.0004) log10 copies/mg lung and 2.32 (p=0.0005) log10 copies/mg lung and 1.38 (p>0.05) log10 copies/mg lung and 2.38 (p=0.0004) log10 copies/mg lung and 2.32 (p=0.0005) log10 copies/mg lung and 1.38 (p>0.05) log10 copies/mg lung
same,EC90,"[5]; Betacoronavirus 1, MRC5, MRC-5, HCOV-OC43 (betaCoV), EC90 could be calculated in one experiment, read-out: Median EC90",4000 nM
same,EC50,"[5]; Betacoronavirus 1, OC43, MRC5, read-out: Median EC50",3900 nM
